Laboratory results published in paper PMC9062088 (RSC Advances, 2019).

Tests used:
[1] = biological target: T1, human TyrRS (Homo sapiens, UniProt P54577); experiment: ATP–pyrophosphate exchange assay; assay type: biochemical; conditions: for inhibitory effect on human TyrRS (SAR statement in words): 100 μM screening data of Tables 1 and 2; for remaining activity at 100 µM: read-out: Enzyme activity@100 μM (%)
T1 sequence (P54577 1-341): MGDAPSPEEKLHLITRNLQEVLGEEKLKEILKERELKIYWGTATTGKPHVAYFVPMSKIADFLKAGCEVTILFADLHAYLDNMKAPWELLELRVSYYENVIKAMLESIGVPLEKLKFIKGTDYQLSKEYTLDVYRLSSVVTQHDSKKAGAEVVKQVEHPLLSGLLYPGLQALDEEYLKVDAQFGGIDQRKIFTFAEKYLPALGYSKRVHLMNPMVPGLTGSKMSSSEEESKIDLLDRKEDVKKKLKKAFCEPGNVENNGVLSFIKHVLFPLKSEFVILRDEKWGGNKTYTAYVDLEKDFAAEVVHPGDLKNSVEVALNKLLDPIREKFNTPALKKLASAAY

[2] = test system: HeLa cells; experiment: Cellular localization of TyrRS; assay type: cell-based, human; conditions: HeLa cells, 1.1, 3.3, 10 or 30 μM, 8 h, immunoblot
[3] = test system: HeLa cells; experiment: Detection of DNA damage in cells; assay type: cell-based, human; conditions: pre-treated 24 h (0.37-30 μM), then 30 μM cisplatin 24 h, immunoblot

COc1ccccc1Sc1c(O)c(Sc2ccccc2OC)c2oc(-c3ccccc3)cc(=O)c2c1O [Compound 3]
inhibitory effect on human TyrRS (SAR statement in words) [1]: substantially diminished activity | remaining activity at 100 µM [1]: 88.9%

Cc1ccccc1Sc1c(O)c(Sc2ccccc2C)c2oc(-c3ccccc3)cc(=O)c2c1O [Compound 8]
inhibitory effect on human TyrRS (SAR statement in words) [1]: substantially diminished activity | remaining activity at 100 µM [1]: 75.9%

CC(C)(C)c1ccc(Sc2c(O)c(Sc3ccc(C(C)(C)C)cc3)c3oc(-c4ccccc4)cc(=O)c3c2O)cc1 [Compound 9]
inhibitory effect on human TyrRS (SAR statement in words) [1]: substantially diminished activity | remaining activity at 100 µM [1]: 85.3%

O=c1cc(-c2ccccc2)oc2c(Sc3cccc(O)c3)c(O)c(Sc3cccc(O)c3)c(O)c12 [Compound 11, 5,7-dihydroxy-6,8-bis((3-hydroxyphenyl)thio)-2-phenyl-4H-chromen-4-one]
TyrRS nuclear localization [2]: dramatically promoted the nuclear localization of TyrRS | level of γ-H2A.X (DNA damage) [3]: dramatically decreased

COc1cc(O)c(Sc2cccc(F)c2)c2oc(-c3ccccc3)cc(=O)c12 [Compound 15]
remaining activity at 100 µM [1]: 68.5%

COc1cc(O)c(Sc2ccc(F)cc2)c2oc(-c3ccccc3)cc(=O)c12 [Compound 16]
remaining activity at 100 µM [1]: 76.4%

COc1cc(O)c(Sc2ccccc2F)c2oc(-c3ccccc3)cc(=O)c12 [Compound 18]
remaining activity at 100 µM [1]: 73.8%

COc1ccc(Sc2c(O)cc(OC)c3c(=O)cc(-c4ccccc4)oc23)cc1 [Compound 21]
remaining activity at 100 µM [1]: 73.9%

O=c1cc(-c2ccccc2)oc2c(Sc3cccc(O)c3)c(O)cc(O)c12 [Compound 26]
remaining activity at 100 µM [1]: 93.2%

O=c1cc(-c2ccccc2)oc2c(Sc3ccccc3O)c(O)cc(O)c12 [Compound 29]
remaining activity at 100 µM [1]: 81.9%
